Assay results taken from US11524012B1, “Quinolone analogs and their salts, compositions, and method for their use” (Senhwa Biosciences, Inc., priority 2018, dated 2022).

Test: Stability study of lyophilized Compound I with mannitol (Method A / Method B samples)
Format: physicochemical
Settings: Method B sample
Protocol: […] Each 30 mL Type I, clear glass sample vial with 20 mm Freeze Dry Stoppers (Flurotech™ coated) contained 150 mg of Compound I.
At each time point, a vial was removed from the stored condition and reconstituted with 10 mL of D5W and analyzed by HPLC method as discussed in Example 5 at 1 month, 2 months, 3 months, and/or 6 months. In Tables 18-18e, RRT matches the Compounds as shown below.
Sample Preparation—Method A: 10% Mannitol solution was prepared by weighing 200 g±1.0 g of mannitol into glass beaker, adding approximately 1500 mL of WFI (water for injection) to the beaker and stirring until mannitol was dissolved. The mannitol solution was transferred to a 2 L volumetric flask and made to volume with WFI, then poured back to the original beaker to sir and mix further. 1M HCl solution was prepared by adding 16.4 mL of HCl (37%) to a 200 mL volumetric flask containing approximately 100 mL of WFI, adding WFI to make 200 mL in volume, and inverting to mix the prepared solution.
To a tared 2 L Schott bottle containing a magnetic stirrer and wrapped in aluminum foil, 1020 g±1.0 g of the 10% mannitol solution was added. Then, 58.4 g±0.05 g of the 1M HCl solution was added to the 2 L Schott bottle and stirred for approximately 10 minutes. The solution prepared in the 2 L Schott bottle was purged with nitrogen which was continued throughout the manufacturing process. 30.22 g of Compound I (free base) was weighed then added to the 2 L Schott bottle containing 10% mannitol solution and 1 M HCl solution with continual magnetic stirring. The container used to weigh Compound I was rinsed with 3×10 mL of WFI and added to the Schott bottle. After Compound I dissolved (approximately 40 minutes), additional 650 g of WFI was added to the Schott bottle and the solution was stirred for approximately 10 minutes. The pH of the Compound I solution (in Schott bottle) was measured then adjusted to pH 4.5±0.1 using 1 M HCl solution. After each addition of 1 M HCl solution, the solution was stirred for several minutes prior to verifying the pH. Once the pH was adjusted, nitrogen purging was stopped. The pH adjusted Compound I solution was further diluted with WFI to a target weight of 2040 g±1.0 g and stirred.
The final solution (pH adjusted and diluted) was filtered (chain including PVD Fmembrane filter 0.45 μm and 0.22 μm; peristaltic filtration pump by Watson Marlow) in the Bigneat and the bottle containing the filtered solution was sealed. The filtered solution was pumped (Watson Marlow Flexicon PF6-B pump; 100 RPM) into 30 mL Schott Clear Glass vials (10.0 mL filtered solution each). The glass vials were partially stoppered with 20 mm Freeze Dry Stopper Flurotec (Daikyo Seiko) one vial at a time with sterilized utensils inside a fume hood (Envair B101+1.5R) and placed on freeze dryer trays. The freeze dryer trays were transferred into freeze dry chamber and vial probe was positioned (Lyostar II; FTS Kinetics). Lyophilization was performed using the lyophilization cycle listed below. After lyophilization cycle finished, the vials were back filled with N2 and the stopper was placed in situ, wiped down with isopropanol in the fume hood once removed from the freeze dryer, reconciled, then crimped. Seven vials out of 186 sample vials placed under the lyophilization cycle had smashed in the freeze dryer.
Sample Preparation—Method B (dissolved oxygen content ≤1 ppm): 2 L WFI was poured into a Schott bottled and degassed for 30 minutes with N2 until dissolved oxygen content was ≤1 ppm (dissolved oxygen meter and probe; Mettler Toledo). 10% Mannitol solution was prepared by adding […] of mannitol and 1000 mL of degassed WFI to a tared 2 L Schott bottle containing a magnetic stirrer and wrapped in aluminum foil. To the Schott bottle containing mannitol, 15 mL of 2M HCl was added and stirred for approximately 10 minutes. The resulting solution was sparged with N2 while stirring until dissolved oxygen content was ≤1 ppm (approx. 30 min). […]

[1] = 5° C, time not printed (2nd block, col 1)
[2] = 5° C, time not printed (2nd block, col 2)
[3] = 5° C, time not printed (2nd block, col 3)
[4] = 5° C, time not printed (2nd block, col 4)
[5] = −20° C., time not printed (2nd block, col 1)
[6] = −20° C., time not printed (2nd block, col 2)
[7] = −20° C., time not printed (2nd block, col 3)
[8] = −20° C., time not printed (2nd block, col 4)

## Cc1cnc(CNC(=O)c2c(=O)c3ccc(N4CCCN(C)CC4)nc3n3c2sc2ccccc23)cn1 [Compound I, 2-(4-Methyl-[1,4]diazepan-1-yl)-5-oxo-5H-7-thia-1,11b-diaza-benzo[c]fluorene-6-carboxylic acid (5-methyl-pyrazin-2-ylmethyl)-amide]
5° C, Initial
  pH (USP<791>): 4.6
[1]
  Appearance: Off-white powder
  Appearance (Reconstituted Solution): Clear, colorless
  Compound I by HPLC assay: 101.7%
  Related Substances RRT 1.05: RRT 1.05: 0.14%
  Related Substances RRT 1.07: RRT 1.07: 0.05%
  Related Substances Total: Total:0.2%
  Water Content USP<921 Method 1c>: 1.37%
  pH (USP<791>): 4.6
[2]
  Appearance: Off-white powder
  Appearance (Reconstituted Solution): Clear, colorless
  Compound I by HPLC assay: 101.3%
  Related Substances RRT 1.05: RRT 1.05: 0.13%
  Related Substances Total: Total: 0.1%
  Water Content USP<921 Method 1c>: 1.29%
  pH (USP<791>): 4.5
[3]
  Appearance: Off-white powder
  Appearance (Reconstituted Solution): Clear, colorless
  Compound I by HPLC assay: 100.3%
  Related Substances RRT 1.05: RRT 1.05: 0.13%
  Related Substances Total: Total: 0.1%
  Water Content USP<921 Method 1c>: 1.05%
  pH (USP<791>): 4.5
[4]
  Appearance: Off-white powder
  Appearance (Reconstituted Solution): Clear, colorless
  Compound I by HPLC assay: 99.1%
  Related Substances RRT 1.05: RRT 1.05: 0.11%
  Related Substances Total: Total: 0.1%
  Water Content USP<921 Method 1c>: 1.25%
  pH (USP<791>): 4.5
25° C./60% RH, 1 month
  Appearance: White
  Appearance (Reconstituted Solution): Clear, colorless
  Compound I by HPLC assay: 99.8%
  Reconstitution Time: 55 s
  Related Substances RRT 1.06: 0.17%
  Related Substances RRT 1.08: 0.06%
  Related Substances Total: Total: 0.2%
  Water Content USP<921 Method 1c>: 1.47%
  pH (USP<791>): 4.4
25° C./60% RH, 2 months
  Appearance: Off-white
  Appearance (Reconstituted Solution): Clear, colorless
  Compound I by HPLC assay: 101.0%
  Related Substances RRT 0.17: 0.08%
  Related Substances RRT 1.04: 0.08%
  Related Substances RRT 1.05: 0.17%
  Related Substances Total: Total: 0.3%
  Water Content USP<921 Method 1c>: 1.30%
  pH (USP<791>): 4.6
25° C./60% RH, 3 months
  Appearance: Off-white
  Appearance (Reconstituted Solution): Clear, colorless
  Compound I by HPLC assay: 100.8%
  Related Substances RRT 0.17: 0.09%
  Related Substances RRT 1.04: 0.08%
  Related Substances RRT 1.05: 0.19%
  Related Substances Total: Total: 0.4%
  Water Content USP<921 Method 1c>: 1.30%
  pH (USP<791>): 4.6
25° C./60% RH, 6 months
  Appearance: Off-white
  Appearance (Reconstituted Solution): Clear, colorless
  Compound I by HPLC assay: 100.3%
  Related Substances RRT 0.88: 0.06%
  Related Substances RRT 1.05: 0.16%
  Related Substances RRT 1.07: 0.10%
  Related Substances Total: Total: 0.3%
  Water Content USP<921 Method 1c>: 1.30%
  pH (USP<791>): 4.5
25° C./60% RH, 12 months
  Appearance: Off-white
  Appearance (Reconstituted Solution): Clear, colorless
  Compound I by HPLC assay: 100.7%
  Related Substances RRT 1.05: 0.18%
  Related Substances RRT 1.07: 0.09%
  Related Substances Total: Total: 0.3%
  Water Content USP<921 Method 1c>: 1.55%
  pH (USP<791>): 4.5
25° C./60% RH, 24 months
  Appearance: Off-white
  Appearance (Reconstituted Solution): Clear, colorless
  Compound I by HPLC assay: 97.6%
  Related Substances RRT 0.88: 0.05%
  Related Substances RRT 1.05: 0.16%
  Related Substances RRT 1.06: 0.17%
  Related Substances Total: Total: 0.4%
  Water Content USP<921 Method 1c>: 1.33%
  pH (USP<791>): 4.4
25° C./60% RH, Initial
  Appearance: White
  Appearance (Reconstituted Solution): Clear, colorless
  Compound I by HPLC assay: 100.2%
  Related Substances RRT 0.96: 0.05%
  Related Substances RRT 1.04: 0.05%
  Related Substances RRT 1.06: 0.17%
  Related Substances RRT 1.08: 0.06%
  Related Substances Total: Total: 0.3%
  Water Content USP<921 Method 1c>: 1.12%
  pH (USP<791>): 4.6
−20° C., 1 month
  Appearance: White powder
  Appearance (Reconstituted Solution): Clear, colorless
  Compound I by HPLC assay: 100.9%
  Reconstitution Time: 65 s
  Related Substances RRT 1.06: RRT 1.06: 0.16%
  Related Substances RRT 1.08: RRT 1.08: 0.06%
  Related Substances Total: Total: 0.2%
  Water Content USP<921 Method 1c>: 1.13%
  pH (USP<791>): 4.4
−20° C., 3 months
  Appearance: Off-white powder
  Appearance (Reconstituted Solution): Clear, colorless
  Compound I by HPLC assay: 99.5%
  Related Substances RRT 1.04: RRT 1.04: 0.08%
  Related Substances RRT 1.05: RRT 1.05: 0.18%
  Related Substances Total: Total: 0.3%
  Water Content USP<921 Method 1c>: 1.33%
  pH (USP<791>): 4.4
−20° C., 6 months
  Appearance: Off-white powder
  Appearance (Reconstituted Solution): Clear, colorless
  Compound I by HPLC assay: 99.7%
  Related Substances RRT 1.05: RRT 1.05: 0.13%
  Related Substances Total: Total: 0.1%
  Water Content USP<921 Method 1c>: 1.24%
  pH (USP<791>): 4.5
−20° C., Initial
  Appearance: White powder
  Appearance (Reconstituted Solution): Clear, colorless
  Compound I by HPLC assay: 100.2%
  Related Substances RRT 0.96: RRT 0.96: 0.05%
  Related Substances RRT 1.04: RRT 1.04: 0.05%
  Related Substances RRT 1.06: RRT 1.06: 0.17%
  Related Substances RRT 1.08: RRT 1.08: 0.06%
  Related Substances Total: Total:0.3%
  Water Content USP<921 Method 1c>: 1.12%
  pH (USP<791>): 4.6
[5]
  Appearance: Off-white powder
  Appearance (Reconstituted Solution): Clear, colorless
  Compound I by HPLC assay: 100.8%
  Related Substances RRT 1.05: RRT 1.05: 0.13%
  Related Substances Total: Total: 0.1%
  Water Content USP<921 Method 1c>: 1.30%
  pH (USP<791>): 4.6
[6]
  Appearance: Off-white powder
  Appearance (Reconstituted Solution): Clear, colorless
  Compound I by HPLC assay: 101.9%
  Related Substances RRT 1.05: RRT 1.05: 0.13%
  Related Substances Total: Total: 0.1%
  Water Content USP<921 Method 1c>: 1.29%
  pH (USP<791>): 4.5
[7]
  Appearance: Off-white powder
  Appearance (Reconstituted Solution): Clear, colorless
  Compound I by HPLC assay: 101.3%
  Related Substances RRT 1.05: RRT 1.05: 0.12%
  Related Substances Total: Total: 0.1%
  Water Content USP<921 Method 1c>: 1.10%
  pH (USP<791>): 4.5
[8]
  Appearance: Off-white powder
  Appearance (Reconstituted Solution): Clear, colorless
  Compound I by HPLC assay: 98.1%
  Related Substances RRT 1.05: RRT 1.05: 0.10%
  Related Substances Total: Total: 0.1%
  Water Content USP<921 Method 1c>: 1.10%
  pH (USP<791>): 4.4
